Entries after “also recorded” stand apart in the source; their conditions may differ.
Legend:
[1] = tested on: bMLV-GFP; test: Infectivity of bMLV-GFP virions (RT-normalized), GFP fluorescence via FACS; type: cell-based
Procedure: (§1) 293T cells were transfected with HIV-1-GFP, SIV-GFP, bMLV-GFP, and nMLV-GFP proviral constructs, and in each case CMV-VSV-G, in the presence or absence of PiB or excess Pin1 as described above. Released virions were normalized via RT assay (EnzChek® Reverse Transcriptase Assay Kit), and infectivity on naïve TZMb1 cells was analyzed by GFP fluorescence via FACS (% cells infected).
Infection assays for retrovirus: Single-round infections: CD4^+ TZM-bl 100,000 cells/well/mL were seeded onto 24-well plates 24 hours prior to infection. These cells were infected in quadruplicate to 24-well plates. Infectivity was scored using an enzymatic galactosidase activity assay. Specifically, infected TZM-bl cells were washed and lysed, and 20 μl of lysate was transferred to a 96-well plate for detecting β-galactosidase activity. 100 μl of reaction buffer Galacton-Star substrate (Applied Biosystems, Bedford, Mass.), diluted 1:50, was added to 20 μl of lysate, and the light emission was measured over 1 second in a microplate luminometer after 30 minutes incubation. […] Replication was monitored by p24 ELISA. […] Viruses were used to infect in duplicate wells, incubated for 48 hours, washed with PBS, trypsinized, fixed in 1% formaldehyde and subsequently analyzed by fluorescence-activated cell sorting (FACS) for percentage cells infected.
We further examined whether blocking Pin1 in producer cells can enhance the infectivity of retroviruses in different primate target cells. […] Infectivity was analyzed by GFP fluorescence via FACS. […] If more cells are infected than the number infected by viruses from untreated cells, this is expressed as a value above 100%—e.g. 2000 cells/10,000 vs 4000 cells/10,000 would be 100% and 200% respectively. […]
In addition to human producer cells, we also examined effect of blocked Pin activity on infectivity of viruses produced in mouse cell lines and nonhuman primate cell lines. […] Infectivity was analyzed by GFP fluorescence via FACS. […]

[2] = cited from earlier work
[3] = tested on: HIV-1; test: HIV-1 viral production in 293T producer cells, p24 ELISA of supernatants; type: cell-based
From the text: Plasmids: Laboratory-adapted provirus NL4.3, and the CypA-independent NL4.3 CAi2 were kindly provided by Akio Adachi (Department of Virology, Institute of Health Biosciences, The University of Tokushima Graduate School, JAPAN). Mutant R9G89V was a gift from P. Gallay (TSR1) as were NL4.3-GFP and SIV-GFP (originally Dana Gabuzda, Dana Farber Cancer Institute). NL4.3 A92E was kindly provided by W. Phares (Genetics Unit, Novartis Forschungsinstitut, Vienna, Austria). R9Δgp160 plasmid clone was kindly provided by C. Aiken (Vanderbilt Medical Center). VSV-G (CMV-VSV-G) was kindly provided by D. Trono (École Polytechnique Fédérale de Lausanne). Both bMLV-GFP and nMLV-GFP in the form of pCIG3-N, pCIG3-B as well as pCNCG were kindly provided by J. Stoye (National Institute for Medical Research, UK). Isomerase mutant Pin1 (pFLAG-Pin1R68,69A) and WW-domain mutant Pin1 (pFLAG-Pin1 W34A) were constructed by site-directed mutagenesis. Pseudotyping experiments were performed using DNA constructs encoding the VSV-G generously provided by D. Trono. Human Pin1 was cloned into pFLAG (Sigma-Aldrich) making pFLAG-Pin1. Viruses were produced by transfection of 293T cells using either GeneJuice (Novagen) or calcium phosphate. […] All viruses were harvested 24-48 hours post-transfection and filtered (0.2-μM filter, Steriflip Millipore). […]

[4] = tested on: SIV-GFP; test: Infectivity of SIV-GFP virions (RT-normalized), GFP fluorescence via FACS; type: cell-based
Procedure: as §1
Infection assays for retrovirus: Single-round infections: CD4^+ TZM-bl 100,000 cells/well/mL were seeded onto 24-well plates 24 hours prior to infection. These cells were infected in quadruplicate to 24-well plates. Infectivity was scored using an enzymatic galactosidase activity assay. Specifically, infected TZM-bl cells were washed and lysed, and 20 μl of lysate was transferred to a 96-well plate for detecting β-galactosidase activity. 100 μl of reaction buffer Galacton-Star substrate (Applied Biosystems, Bedford, Mass.), diluted 1:50, was added to 20 μl of lysate, and the light emission was measured over 1 second in a microplate luminometer after 30 minutes incubation. For human PBMC infections, cells were exposed to 10 ng of wild-type virus for 6 hours, washed, and split into two flasks: one with 10 μM PiB added on day 0 and 3, and one without PiB. Replication was monitored by p24 ELISA. For measuring infectivity of GFP-virus, 50,000 TZMb1, sMAGI, OMK, Vero, BSC-1 and CV-1 cells/well/mL were seeded onto 6-well plates respectively 24 hours prior to infection. Viruses were used to infect in duplicate wells, incubated for 48 hours, washed with PBS, trypsinized, fixed in 1% formaldehyde and subsequently analyzed by fluorescence-activated cell sorting (FACS) for percentage cells infected.
[…]. In brief, 293T cells were transfected with a SIV-GFP (Mac293), a CMV driven plasmid encoding VSV-G envelope protein alone, or in the presence of 2.0 μM PiB, 10.0 μM PiB, 20.0 μM PiB, or 40.0 μM PiB. […] Infectivity was measured as GFP fluorescence via FACS. […]
We then examined effect of Pin blocking in non-human primate producer cells on viral infectivity. […] Infectivity was analyzed by GFP fluorescence via FACS. […]

[5] = produced in 293T with PiB, TZMb1 cells

For `CCOC(=O)CN1C(=O)c2ccc3c4c(ccc(c24)C1=O)C(=O)N(CC(=O)OCC)C3=O` [PiB, diethyl-1,3,6,8-tetrahydro-1,3,6,8-tetraoxobenzo[lmn][3,8]phenanthroline-2,7-diacetate], the “infectivity of MLV produced in mouse embryonic fibroblasts” value ([1]; MEF producer cells with PiB, TZM target cells) was “enhanced infectivity”, the “boost of bMLV-GFP infectivity” value [1, 5] was 2 fold and the “infectivity of bMLV-GFP in primate target cell panel” value ([1]; produced with PiB, TZM, OMK, sMAGI, Vero, CV-1 target cells) was “enhanced infectivity”. For the same compound, the “stability at 37°” value ([2]; 37°) was “instability”, the “stability in aqueous solution” value ([2]; aqueous solution) was “breaks down in aqueous solution” and the “viral production (HIV-1 capsid in viral supernatants by p24 ELISA)” value [3] was “Neither inhibitor influences viral production; also recorded: do not alter viral production”. For the same compound, the “infectivity of VSV-G pseudotyped macaque SIV-GFP” value ([4]; produced in 293T with 2.0, 10.0, 20.0 or 40.0 μM PiB) was “enhanced infectivity in a dose dependent manner”, the “boost of SIV-GFP infectivity” value [4, 5] was 1.5 fold and the “infectivity of SIV produced in non-human primate cells” value ([4]; sMAGI, Vero, CV-1 (b135 also OMK) producer cells, human TZM/reporter cells) was “enhanced infectivity”.
